Data reported in patent US20250304635A1, “BIRINAPANT POLYMORPH H” (Medivir AB, priority 2022, published 2025).

Columns and labels:
Type in all cases: physicochemical
[1] = Dynamic vapor sorption (DVS) study; set-up: Hysteresis: unit not given here; details: 25° C.
Method: Automated vapor sorption (VS) data were collected on a Surface Measurement System DVS Intrinsic instrument. Samples were not dried prior to analysis. Sorption and desorption data were collected over a range from 5% to 95% RH at 10% RH increments under a nitrogen purge. The equilibrium criterion used for analysis was less than 0.0100% weight change in 5 minutes with a maximum equilibration time of 3 hours. Data were not corrected for the initial moisture content of the samples. This study was performed at a temperature of 25° C., and the relative humidity was cycled between about 5% and about 95%.

[2] = Stability studies under elevated temperature and relative humidity; crystalline form by XRPD, birefringence by polarized light microscopy
Method: XRPD patterns were collected with a PANalytical Empyrean diffractometer using an incident beam of Cu radiation produced using a long, fine-focus source. An elliptically graded multilayer mirror was used to focus Cu Kα X-rays through the specimen and onto the detector. Prior to analysis, a silicon specimen (NIST SRM 640e) was analyzed to verify the observed position of the Si 111 peak is consistent with the NIST-certified position. A specimen of the sample was sandwiched between 3-μm-thick films and analyzed in transmission geometry. A beam-stop, short antiscatter extension, and antiscatter knife edge were used to minimize the background generated by air. Soller slits for the incident and diffracted beams were used to minimize broadening and asymmetry from axial divergence. Diffraction patterns were collected using a scanning position-sensitive detector (X′Celerator) located 240 mm from the specimen and Data Collector software v. 5.5. Additional stability studies under elevated temperature and relative humidity (RH) conditions were also performed. Samples of birinapant form H were subjected to various temperature and humidity conditions for up to 105 days, and samples were taken at 17, 33, and 105 days. For each sample the identity of the crystalline form of the sample was assessed using XRPD and the birefringence of the sample was assessed using polarized light microscopy. Additionally, XRPD patterns for several time points are provided for the 60° C. study, the 30° C./62% RH study, and the 40° C./75% RH study in FIGS. 6, 7, and 8, respectively. The time points shown are at the start of the study (top pattern), after 17 days (pattern second from top), after 33 days (pattern third from top), and after 105 days (bottom pattern). Additional stability studies under elevated temperature and relative humidity (RH) conditions were also performed. Samples of birinapant form H were subjected to various temperature and humidity conditions for up to 182 days, and samples were taken at […]. For each sample the identity of the crystalline form of the sample was assessed using XRPD and the birefringence of the sample was assessed using polarized light microscopy. The “RESULT” column indicates the form that was observed. Additionally, XRPD patterns for several time points are provided for the 60° C. study, the 30° C./62% RH study, and the 40° C./75% RH study in FIG. 9. The spectra shown in FIG. 9 correspond to the 60° C. study after 33 days (top trace), the 60° C. study after 182 days (trace second from top), the 30° C./62% RH study after 33 days (trace third from top), the 30° C./62% RH study after 182 days (trace fourth from top), the 40° C./75% RH study after 33 days (trace fifth from top), and the 40° C./75% RH study after 182 days (trace sixth from top). A representative XRPD trace for birinapant form H prior to stressing is also shown for comparison (bottom trace).

[3] = as above; remark: listed apart in the source
TGA study = details: between about 25° C. and 300° C.
Method: TGA analysis was performed using a Mettler-Toledo TGA/DSC3 analyzer. Temperature and enthalpy adjustments were performed using indium, tin, and zinc, and then verified with indium. The balance was verified with calcium oxalate. The sample was placed in an open aluminum pan. The pan was hermetically sealed, the lid pierced, and then inserted into the TG furnace. A weighed aluminum pan configured as the sample pan was placed on the reference platform. The furnace was heated under nitrogen. Each sample was heated from ambient temperature to 350° C. at 10° C./min. The thermograms were plotted by reference temperature (x-axis) and results were reported according to sample temperatures. Briefly, a sample of biripant Form H was heated from about 25° C. to about 400° C. […] Between about 340° C. and 400° C., weight loss was observed, corresponding to the thermal decomposition of birinapant.

[4] = Stability study: material left open to air at room temperature and exposed to light for one month (HPLC, Karl Fischer); details: room temperature, exposed to light
Method: A stability study of birinapant form H was performed by leaving the material open to air at room temperature and exposed to light for one month. […] A stability study of birinapant form H was performed by leaving the material open to air at room temperature and exposed to light for one month.

[5] = target RH 95.0%, sample RH 95.7%

With CC[C@H](NC(=O)[C@H](C)NC)C(=O)N1C[C@@H](O)C[C@H]1Cc1c(-c2[nH]c3cc(F)ccc3c2C[C@@H]2C[C@H](O)CN2C(=O)[C@H](CC)NC(=O)[C@H](C)NC)[nH]c2cc(F)ccc12 [birinapant Form H, (2S,2'S)—N,N′-((2S,2'S)-((3S,3'S,5R,5′R)-((6,6′-difluoro-1H,1′H-[2,2′-biindole]-3,3′-diyl)bis(methylene))bis(3-hydroxypyrrolidine-5,1-diyl))bis(1-oxobutane-1,2-diyl))bis(2-(methylamino)propanamide)] the “Cycle 1 Sorp Mass Change” value ([1]; target RH 5.0%, sample RH 5.1%) was 0.000%, the “Cycle 1 Desorp Mass Change” value ([1]; target RH 5.0%, sample RH 5.5%) was 0.020% and the Hysteresis ([1]; target RH 15.0%) was 0.192. The “Cycle 1 Sorp Mass Change” value ([1]; target RH 15.0%, sample RH 15.6%) was 0.365%, the “Cycle 1 Desorp Mass Change” value ([1]; target RH 15.0%, sample RH 16.1%) was 0.557% and the Hysteresis ([1]; target RH 25.0%) was 0.197. The “Cycle 1 Sorp Mass Change” value ([1]; target RH 25.0%, sample RH 25.1%) was 0.732%, the “Cycle 1 Desorp Mass Change” value ([1]; target RH 25.0%, sample RH 25.6%) was 0.929% and the Hysteresis ([1]; target RH 35.0%) was 0.237. For the same molecule, the “Cycle 1 Sorp Mass Change” value ([1]; target RH 35.0%, sample RH 34.7%) was 1.001%, the “Cycle 1 Desorp Mass Change” value ([1]; target RH 35.0%, sample RH 35.3%) was 1.238% and the Hysteresis ([1]; target RH 45.0%) was 0.308. For the same molecule, the “Cycle 1 Sorp Mass Change” value ([1]; target RH 45.0%, sample RH 45.0%) was 1.224%, the “Cycle 1 Desorp Mass Change” value ([1]; target RH 45.0%, sample RH 45.6%) was 1.532% and the Hysteresis ([1]; target RH 55.0%) was 0.379. The “Cycle 1 Sorp Mass Change” value ([1]; target RH 55.0%, sample RH 54.7%) was 1.436%, the “Cycle 1 Desorp Mass Change” value ([1]; target RH 55.0%, sample RH 55.4%) was 1.815% and the Hysteresis ([1]; target RH 65.0%) was 0.425. For the same molecule, the “Cycle 1 Sorp Mass Change” value ([1]; target RH 65.0%, sample RH 64.7%) was 1.652%, the “Cycle 1 Desorp Mass Change” value ([1]; target RH 65.0%, sample RH 65.5%) was 2.078% and the Hysteresis ([1]; target RH 75.0%) was 0.428. For the same molecule, the “Cycle 1 Sorp Mass Change” value ([1]; target RH 75.0%, sample RH 74.7%) was 1.908%, the “Cycle 1 Desorp Mass Change” value ([1]; target RH 75.0%, sample RH 75.3%) was 2.336% and the Hysteresis ([1]; target RH 85.0%) was 0.347. For the same molecule, the “Cycle 1 Sorp Mass Change” value ([1]; target RH 85.0%, sample RH 84.9%) was 2.263%, the “Cycle 1 Desorp Mass Change” value ([1]; target RH 85.0%, sample RH 86.0%) was 2.610% and the “Cycle 1 Desorp Mass Change” value [1, 5] was 2.904%. For the same molecule, the “Cycle 1 Sorp Mass Change” value [1, 5] was 2.904%, the Observation ([2]; 30° C., 62% RH, 17 d, B = birefringence) was “fines, B” and the Observation ([2]; 30° C., 62% RH, 105 d, B = birefringence) was “white fines, B”. For the same molecule, the Observation ([2]; 40° C., 75% RH, 17 d, B = birefringence) was “fines, B”, the Observation ([2]; 40° C., 75% RH, 33 d) was “white solids” and the Observation ([2]; 40° C., 75% RH, 105 d, B = birefringence) was “white fines, B”. The Observation ([2]; 60° C., 17 d, B = birefringence) was “fines, B”, the Observation ([2]; 60° C., 33 d) was “white to off-white in color” and the Observation ([2]; 60° C., 105 d) was “off-white”. For the same molecule, the Observation ([2]; 80° C., 17 d, B = birefringence) was “fines, B sample faint pale yellow”, the Observation ([2]; 80° C., 33 d) was “pale yellow in color” and the Observation ([2]; RT, 98% RH, 18 d, B = birefringence) was “fines, B sample faint pale yellow”. The Observation ([2]; Table 5: 30° C., 62% RH, 17 d, B = birefringence) was “fines, B”, the Observation ([2]; Table 5: 30° C., 62% RH, 105 d, B = birefringence) was “white fines, B” and the Observation ([2]; Table 5: 30° C., 62% RH, 182 d, power outage 1 hour on day 125) was “white solids^d”. The Observation ([2]; Table 5: 40° C., 75% RH, 17 d, B = birefringence) was “fines, B”, the Observation ([2]; Table 5: 40° C., 75% RH, 33 d) was “white solids” and the Observation ([2]; Table 5: 40° C., 75% RH, 105 d, B = birefringence) was “white fines, B”. For the same molecule, the Observation ([2]; Table 5: 40° C., 75% RH, 182 d, power outage 1 hour on day 125) was “white solids^e”, the Observation ([2]; Table 5: 60° C., 17 d, B = birefringence) was “fines, B” and the Observation ([2]; Table 5: 60° C., 33 d) was “white to off-white in color”. For the same molecule, the Observation ([2]; Table 5: 60° C., 105 d) was “off-white”, the Observation ([2]; Table 5: 60° C., 182 d, temperature excursions: 105° C. 3 hours on day 113, power outage 1 hour on day 125) was “off-white to pale yellow^c” and the Observation ([2]; Table 5: 80° C., 17 d, B = birefringence) was “fines, B sample faint pale yellow”. For the same molecule, the Observation ([2]; Table 5: 80° C., 33 d) was “pale yellow in color”, the Observation ([2]; Table 5: RT, 53% RH, 18 d, B = birefringence) was “fines, B sample faint pale yellow” and the Observation ([2]; Table 5: RT, 98% RH, 18 d, B = birefringence) was “fines, B sample faint pale yellow”. For the same molecule, the Observation ([3]; 245° C., 1 hr) was “light tan solids”, the Observation ([3]; RT, 53% RH, 18 d, B = birefringence) was “fines, B sample faint pale yellow” and the Observation ([3]; Table 5: 245° C., 1 hr) was “light tan solids”. The “weight loss on heating (TGA)” value (TGA study) was “No weight loss”, the “appearance of the surface of the solid” value [4] was “discolored slightly” and the “purity of birinapant by HPLC after storage” value [4] was 99.9%.
